According to ChEMBL document CHEMBL3627683, “Effective Two-Photon Excited Photodynamic Therapy of Xenograft Tumors Sensitized by Water-Soluble Bis(arylidene)cycloalkanone Photosensitizers” (J Med Chem, 2015):
pIC50: −log10 of the molar value. In brackets after ≈: the same amount, converted by molar mass. Activity calls are given as the source filed them. The rule behind the calls is not given here.

Columns and labels:
[1] = Solubility of the compound in PBS; assay type: physicochemical
[2] = Octanol-water partition coefficient, log P of the compound; assay type: physicochemical
[3] = Drug uptake in mitochondria of human HepG2 cells at 5 uM for 4 hrs by MitoLite NIR staining-based CLSM analysis; assay type: ADME; conditions: hepg2, 4 h
[4] = Drug uptake in mitochondria of human HepG2 cells by MitoLite NIR staining-based CLSM analysis; assay type: ADME; conditions: TDE = time-dependent effect
[5] = Dark toxicity in human HepG2 cells assessed as cell viability measured after 24 hrs by CCK-8 assay; assay type: cell-based; conditions: read-out: TC50
[6] = system: HepG2; test: Photocytotoxicity against human HepG2 cells assessed as cell viability preincubated for 4 hrs in dark condition followed by irradiation at 532 nm for 20 mins measured 24 hrs post incubation in dark condition by CCK-8 assay; assay type: functional, cell-based; conditions: HepG2, light or radiation study
[7] = Therapeutic ratio of TC50 for human HepG2 cells to IC50 for human HepG2 cells under irradiation at […]; assay type: ADME, cell-based; conditions: read-out: TI
[8] = system: HepG2; test: Photocytotoxicity against human HepG2 cells assessed as cell viability preincubated for 4 hrs in dark condition followed by irradiation at 800 nm for 10 mins measured 24 hrs post incubation in dark condition by CCK-8 assay; assay type: functional, cell-based; conditions: HepG2, light or radiation study
[9] = Therapeutic ratio of TC50 for human HepG2 cells to IC50 for human HepG2 cells under irradiation at 800 nm; assay type: ADME, cell-based; conditions: read-out: TI
[10] = system: HepG2; test: Induction of ROS generation in human HepG2 cells at 5 uM preincubated for 4 hrs followed by DCFH-DA addition for 0.5 hrs and irradiation at 800 nm for 10 mins measured by CLSM; assay type: functional, cell-based
[11] = system: HepG2; test: Induction of ROS generation in human HepG2 cells at 5 uM preincubated for 4 hrs followed by DCFH-DA addition for 0.5 hrs in absence of irradiation measured by CSLM; assay type: functional, cell-based
[12] = system: Mus musculus; test: Induction of blood vessels blockage in BALB/c mouse dorsal skinfold window chamber model at 17.5 mg/kg, iv irradiated at 800 nm for 5 mins monitored by stereomicroscopic analysis; assay type: functional, organism-based; conditions: Blood vessel
[13] = system: CCRF S-180; test: Drug uptake in mouse S180 cells implanted in BALB/c mouse at 17.5 mg/kg, iv measured within 3 hrs by CSLM analysis; assay type: ADME, organism-based; conditions: in vivo
[14] = system: CCRF S-180; test: Drug uptake in mouse S180 cells implanted in BALB/c mouse at 17.5 mg/kg, iv measured at 3 to 24 hrs by CSLM analysis; assay type: ADME, organism-based; conditions: in vivo
[15] = system: CCRF S-180; test: Antitumor activity against mouse S180 cells implanted in BALB/c mouse assessed as tumor growth inhibition at 17.5 mg/kg, iv administered 3 hrs followed by irradiation at 800 nm for 25 mins measured every other day until 12 days relative to control; assay type: functional; conditions: CCRF S-180, light or radiation study, read-out: TGI
[16] = system: CCRF S-180; test: Antitumor activity against mouse S180 cells implanted in BALB/c mouse assessed as tumor growth inhibition at 17.5 mg/kg, iv administered 3 hrs followed by irradiation at 800 nm for 25 mins measured every other day until 12 days […]; assay type: functional, organism-based
[17] = system: CCRF S-180; test: Antitumor activity against mouse S180 cells implanted in BALB/c mouse assessed as prolongation of survival at 17.5 mg/kg, iv administered 3 hrs followed by irradiation at 800 nm for 25 mins measured by Kaplan-Meier analysis; assay type: functional, organism-based
[18] = system: CCRF S-180; test: Antitumor activity against mouse S180 cells implanted in BALB/c mouse assessed as prolongation of survival at 17.5 mg/kg, iv administered 3 hrs in the absence of irradiation measured by Kaplan-Meier analysis; assay type: functional, organism-based

Structure (SMILES)	solubility [1]	logP [2]	Drug uptake [3]	Drug uptake [4]	CC50 at 24 h [5]	pIC50 [6]	selectivity ratio [7]	pIC50 [8]	selectivity ratio [9]	Activity [10]	Activity [11]	Activity [12]	Drug uptake [13]	Drug uptake [14]	inhibition in vivo at 17.5 mg/kg [15]	TGI [16]	Activity [17]	Activity [18]
COCCOCCOCCOCCOCCN(C)c1ccc(C=C2CC(=Cc3ccc(N(C)CCOCCOCCOCCOCCOC)cc3)C2=O)cc1	> 100 mg/mL	2.54	Active	tde	41.9 µM	5.51	13.6	4.77	2.49									
CCN(CC)c1ccc(/C=C2\CC/C(=C\c3ccc(N(CCOCCOCCOCCOCCOC)CCOCCOCCOCCOCCOC)cc3)C2=O)cc1	> 100 mg/mL	3.2	Active	tde	20.9 µM	5.79	13	5.33	4.48									
CCN(CC)c1ccc(C=C2CC(=Cc3ccc(N(CCOCCOCCOCCOC)CCOCCOCCOCCOC)cc3)C2=O)cc1	1.8 mg/mL (≈ 2.52 mM)	3.2	Active	tde	24 µM	5.90	18.9	5.73	12.8									
COCCOCCOCCOCCOCCN(C)c1ccc(/C=C2\CC/C(=C\c3ccc(N(C)CCOCCOCCOCCOCCOC)cc3)C2=O)cc1	> 100 mg/mL	2.73	Active	tde	41.5 µM	5.59	16	4.83	2.79									
COCCOCCOCCOCCN(C)c1ccc(C=C2CC(=Cc3ccc(N(C)CCOCCOCCOCCOC)cc3)C2=O)cc1	0.3 mg/mL (≈ 0.438 mM)	2.86	Active	tde	34 µM	5.65	15	4.88	2.58									
CCN(CC)c1ccc(C=C2CC(=Cc3ccc(N(CCOCCOCCOCCOCCOC)CCOCCOCCOCCOCCOC)cc3)C2=O)cc1	> 100 mg/mL	3.04	Active	tde	35.9 µM	5.85	25.5	5.41	9.13	Active	inactive	Active	Active	Not Active	43%	inactive	Active	inactive
